Source: ChEMBL document CHEMBL2016513, “Synthesis and evaluation of human phosphodiesterases (PDE) 5 inhibitor analogs as trypanosomal PDE inhibitors. Part 1. Sildenafil analogs” (Bioorg Med Chem Lett, 2012)

Biological target: T1, Class 1 phosphodiesterase PDEB1 (Trypanosoma brucei) (UniProt Q8WQX9)
T1 sequence (whole entry): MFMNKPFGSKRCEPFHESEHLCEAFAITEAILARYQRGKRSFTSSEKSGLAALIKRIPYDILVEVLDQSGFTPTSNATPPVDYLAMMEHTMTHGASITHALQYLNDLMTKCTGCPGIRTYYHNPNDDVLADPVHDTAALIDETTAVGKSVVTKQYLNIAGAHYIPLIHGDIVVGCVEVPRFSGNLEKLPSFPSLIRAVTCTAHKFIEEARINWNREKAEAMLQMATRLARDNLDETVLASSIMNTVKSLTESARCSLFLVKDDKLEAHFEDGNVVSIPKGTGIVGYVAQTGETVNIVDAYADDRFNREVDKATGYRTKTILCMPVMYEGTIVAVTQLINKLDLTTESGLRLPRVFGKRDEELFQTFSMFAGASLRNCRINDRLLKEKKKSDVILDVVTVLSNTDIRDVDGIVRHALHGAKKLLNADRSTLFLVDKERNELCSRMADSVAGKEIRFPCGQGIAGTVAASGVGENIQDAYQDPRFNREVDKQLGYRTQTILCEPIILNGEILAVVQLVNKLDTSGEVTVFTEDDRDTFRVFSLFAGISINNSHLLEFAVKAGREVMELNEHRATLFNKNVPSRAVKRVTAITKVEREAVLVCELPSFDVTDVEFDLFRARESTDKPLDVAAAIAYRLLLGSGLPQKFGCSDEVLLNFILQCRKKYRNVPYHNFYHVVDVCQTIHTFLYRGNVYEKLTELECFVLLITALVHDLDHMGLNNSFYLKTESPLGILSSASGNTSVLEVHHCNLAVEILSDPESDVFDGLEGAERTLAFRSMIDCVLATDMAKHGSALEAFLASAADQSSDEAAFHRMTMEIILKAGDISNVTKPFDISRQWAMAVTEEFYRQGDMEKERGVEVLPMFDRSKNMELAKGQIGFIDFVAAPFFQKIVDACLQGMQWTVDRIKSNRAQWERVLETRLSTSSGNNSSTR
Assay: Inhibition of Trypanosoma brucei PDEB1 at 100 uM

inhibition [%] | SMILES
53.8 | CCCc1nn(C)c2c(=O)[nH]c(-c3cccnc3OC(C)C)nc12
5.3 | CCCc1nn(C)c2c(=O)[nH]c(-c3cn(C)cn3)nc12
14.1 | CCCc1nn(C)c2c(=O)[nH]c(-c3nccnc3N)nc12
16.3 | CCCc1nn(C)c2c(=O)[nH]c(-c3snnc3C)nc12
77.2 | CCCc1nn(C)c2c(=O)[nH]c(-c3cccnc3OC)nc12
7.2 | CCCc1nn(C)c2c(=O)[nH]c(-c3cn(C)nc3C)nc12
22.5 | CCCc1nn(C)c2c(=O)[nH]c(-c3cccnc3O)nc12
22.9 | CCOc1ccccc1-c1nc2c(-c3ccccc3)n[nH]c2c(=O)[nH]1
41.5 | CCCc1nn(C)c2c(=O)[nH]c(-c3cccnc3OCC)nc12
13.8 | CCCc1nn(C)c2c(=O)[nH]c(-c3ccoc3)nc12
70.9 | CCOc1ccc(S(=O)(=O)N2CCN(C)CC2)cc1-c1nc2c(-c3ccccc3)n[nH]c2c(=O)[nH]1
17.5 | CCOc1ccc(S(=O)(=O)N2CCN(C)CC2)cc1-c1nc2c(-c3ccccc3)nn(C)c2c(=O)[nH]1
51.5 | CCCc1nn(C)c2c(=O)[nH]c(-c3cc(S(=O)(=O)N4CCN(C)CC4)ccc3OCC)nc12
30 | CCCc1nn(C)c2c(=O)[nH]c(-c3cnc(C)cn3)nc12
72.1 | CCCc1nn(C)c2c(=O)[nH]c(-c3ncccc3C)nc12
6.5 | CCCc1nn(C)c2c(=O)[nH]c(-c3cnccn3)nc12
21.8 | CCCc1nn(C)c2c(=O)[nH]c(-c3ccccc3OCC)nc12
16 | CCCc1n[nH]c2c(=O)[nH]c(-c3cc(S(=O)(=O)N4CCN(C)CC4)ccc3OCC)nc12
8.4 | CCCc1nn(C)c2c(=O)[nH]c(-c3cccc(S(=O)(=O)N4CCN(C)CC4)c3)nc12
25.4 | CCCc1nn(C)c2c(=O)[nH]c(-c3cscn3)nc12
3.2 | CCCc1nn(C)c2c(=O)[nH]c(-c3nnco3)nc12
7 | CCOc1ccccc1-c1nc2c(-c3ccccc3)nn(CC(N)=O)c2c(=O)[nH]1
24 | CCCc1nn(C)c2c(=O)[nH]c(-c3ccc(O)cc3)nc12
13.6 | CCOc1ccc(S(=O)(=O)N2CCN(C)CC2)cc1-c1nc2cnn(C)c2c(=O)[nH]1
11.1 | CCCc1nn(C)c2c(=O)[nH]c(-c3ccc(=O)[nH]n3)nc12
32.4 | CCCc1nn(-c2cccnc2)c2c(=O)[nH]c(-c3cc(S(=O)(=O)N4CCN(C)CC4)ccc3OCC)nc12
29 | CCCc1nn(C)c2c(=O)[nH]c(-c3oc(C)nc3C)nc12

Tested on: not listed separately
Assay: Solubility of the compound in 10% DMSO
Assay type: physicochemical

solubility | SMILES
Insoluble | CCCc1n[nH]c2c(O)nc(-c3ccccc3OCC)nc12
Insoluble | CCOc1ccc(S(=O)(=O)N2CCN(C)CC2)cc1-c1nc2c(C)nn(C)c2c(=O)[nH]1
Insoluble | CCCc1nn(C)c2c(=O)[nH]c(-c3ccsc3)nc12
Insoluble | CCOc1ccccc1-c1nc2c(-c3ccccc3)nn(-c3cccnc3)c2c(=O)[nH]1
Insoluble | CCCc1nn(C)c2c(=O)[nH]c(-c3ccnn3C)nc12
Insoluble | CCOc1ccccc1-c1nc2c(-c3ccccc3)nn(-c3ccccc3)c2c(=O)[nH]1
